In patent publication US20130090476A1, “Thiazolylpiperidine Derivatives as Fungicides” (priority 2009, published 2013):

How the values were obtained:
Phytophthora infestans = assay: whole plant or invertebrate; type: in vivo; conditions: in Solanum lycopersicum, 168 h, read-out: efficacy
[1] = logP determination by HPLC (EEC Directive 79/831 Annex V.A8), LC-MS
physchem = conditions: pH 2.7
[2] = pH 2.7, log P (pH2.7), pH 2.7, value given in the preparation text
[3] = pH 2.7, logP, * acidic range, pH 2.7, 0.1% aqueous formic acid/acetonitrile
[4] = pH 7.8, logP, ** neutral range, pH 7.8, 0.001 molar aqueous ammonium bicarbonate/acetonitrile

SMILES	pest or weed control at 500 ppm (Phytophthora infestans)	chromatographic logP [1, 2]	chromatographic logP [1, 3]	chromatographic logP [1, 4]	chromatographic logP (physchem)
Cc1cc(C(F)(F)F)nn1CC(=O)N1CCC(c2nc(CSc3cccc4ccccc34)cs2)CC1 [Compound I-1, 2-[5-Methyl-3-(trifluoromethyl)-1H-pyrazol-1-yl]-1-(4-{4-[(1-naphthylsulphanyl)methyl]-1,3-thiazol-2-yl}piperidin-1-yl)ethanone]	≥ 70%	4.33	4.33		
Cc1cc(C(F)(F)F)nn1CC(=O)N1CCC(c2nc(CS(=O)(=O)C3CCCCC3)cs2)CC1 [Compound I-7, 1-(4-{4-[(Cyclohexylsulphonyl)methyl]-1,3-thiazol-2-yl}piperidin-1-yl)-2-[5-methyl-3-(trifluoromethyl)-1H-pyrazol-1-yl]ethanone]	≥ 70%	2.9	2.9	2.87	
CC(C)(C)OC(=O)N1CCC(c2nc(CSC(=N)N)cs2)CC1 [IX-1, Amino[({2-[1-(tert-butoxycarbonyl)piperidin-4-yl]-1,3-thiazol-4-yl}methyl)sulphanyl]methaniminium iodide]					1.44
Cc1cc(C(F)(F)F)nn1CC(=O)N1CCC(c2nc(CSC3CCCCC3)cs2)CC1 [Compound I-3, 1-(4-{4-[(Cyclohexylsulphanyl)methyl]-1,3-thiazol-2-yl}piperidin-1-yl)-2-[5-methyl-3-(trifluoromethyl)-1H-pyrazol-1-yl]ethanone]	≥ 70%	4.3	4.3		
Cc1cc(C(F)(F)F)nn1CC(=O)N1CCC(c2nc(CS(=O)(=O)c3cccc4cccnc34)cs2)CC1 [Compound I-9, 1-(4-{4-[(Quinolin-8-ylsulphonyl)methyl]-1,3-thiazol-2-yl}piperidin-1-yl)-2-[5-methyl-3-(trifluoromethyl)-1H-pyrazol-1-yl]ethanone]	≥ 70%	2.63	2.63		
Cc1cc(C(F)(F)F)nn1CC(=S)N1CCC(c2nc(CSc3nnnn3-c3ccccc3)cs2)CC1 [Compound I-15, 2-[5-Methyl-3-(trifluoromethyl)-1H-pyrazol-1-yl]-1-[4-(4-{[(1-phenyl-1H-tetrazol-5-yl)sulphanyl]methyl}-1,3-thiazol-2-yl)piperidin-1-yl]ethanethione]	≥ 70%	3.82	2.82	2.87	
Cc1cc(C(F)(F)F)nn1CC(=O)N1CCC(c2nc(C[S+]([O-])c3cccc4ccccc34)cs2)CC1 (stereo not drawn) [Compound I-13, 2-[5-Methyl-3-(trifluoromethyl)-1H-pyrazol-1-yl]-1-(4-{4-[(1-naphthylsulphinyl)methyl]-1,3-thiazol-2-yl}piperidin-1-yl)ethanone]	≥ 70%	2.86	2.86		
Cc1cc(C(F)(F)F)nn1CC(=O)N1CCC(c2nc(CS(=O)(=O)c3nnnn3-c3ccccc3)cs2)CC1 [Compound I-8, 2-[5-Methyl-3-(trifluoromethyl)-1H-pyrazol-1-yl]-1-[4-(4-{[(1-phenyl-1H-tetrazol-5-yl)sulphonyl]methyl}-1,3-thiazol-2-yl)piperidin-1-yl]ethanone]	≥ 70%	3.1	3.07		
Cc1cc(C(F)(F)F)nn1CC(=O)N1CCC(c2nc(CS(=O)(=O)c3cccc4ccccc34)cs2)CC1 [Compound I-10, 2-[5-Methyl-3-(trifluoromethyl)-1H-pyrazol-1-yl]-1-(4-{4-[(1-naphthylsulphonyl)methyl]-1,3-thiazol-2-yl}piperidin-1-yl)ethanone]	≥ 70%	3.21	3.19		
